One test has as its system Rabbit saphene vein. As to the kind of experiment: Non-endothelium-dependent relaxations in rabbit saphene vein. The conditions noted are these: for IC50: Oryctolagus cuniculus, rabbit saphene vein, contraction with KCl (60 mM), read-out: 50% effective relaxant concentration (IC50). The method, then:
(§1) New Zealand rabbits (2.5 kg) are exsanguinated under anesthesia (pentobarbital, 30 mg/kg) and the saphene veins are rapidly removed and cut into 3-mm rings. These rings are mounted between two hooks in tanks thermostatically adjusted to 37° C., containing physiological saline (composition in mM: 118 NaCl; 25 NaHCO3; 10 glucose; 4.7 KCl; 1.25 CaCl2; 1.19 MgSO4; 1.14 KHPO4).
The physiological saline is bubbled with a mixture of 95% O2 /5% CO2. The lower hook constitutes the fixed point whereas the upper hook is connected to an isometric force sensor. The tissues are placed under a base tension of 1 gram. The pharmacological substances studied are prepared immediately before use. The drugs are dissolved in water or in dimethyl sulfoxide.
This EC50 is calculated routinely in the following way: the tension values are first converted into percentages relative to the maximum effect and these percentages are then plotted on a graph with the percentages on the Y-axis and the log (concentration) values on the X-axis. A linear regression is then carried out on the points between 10% and 90% (which corresponds to the linear part of the sigmoidal curve). The concentration corresponding to the half-maximal effect (50%) can readily be calculated using the parameters of the straight line. After washing and returning to the base line, the organ is placed in contact with the antagonist (8 different concentrations for each organ) for 20 minutes. A second effect/concentration curve is thus produced in the presence of the antagonist and the "treated" EC50 can then be calculated. This thus provides all the elements which allow the pA2 (competitive antagonism) or pD2 (non-competitive angatonism) to be calculated.
Determination of the Non-Endothelium-Dependent Relaxations in Rabbit Saphene Vein
Rabbit saphene veins are prepared and mounted as described in the above example. After stabilization, a contraction with KCl (60 mM) is induced. […] It is calculated as described in the above example.

The next test deals with vascular TP-receptor. As to the kind of experiment: Determination of the pA2 values of the antagonists towards TXA2 on rabbit saphene vein. The arrangement: species or system rabbit (New Zealand). As to conditions: rabbit saphene vein rings, 37° C., U 46619 10^-9 M to 10^-5 M, antagonist 20 minutes. The method, then: Determination of the pA2 Values of the Antagonists Towards TXA2 on Rabbit Saphene Vein
as §1
The physiological saline is bubbled with a mixture of 95% O2 /5% CO2. The lower hook constitutes the fixed point whereas the upper hook is connected to an isometric force sensor. The tissues are placed under a base tension of 1 gram. […]
After mounting, the preparations are left to stand for 90 minutes, with rinsing carried out every 30 minutes. After readjustment of the base tension, a contraction by a single dose of the TXA2 agonist, U 46619 at 10^-5 M, is induced in order to regularize the following contractions. […]
This EC50 is calculated routinely in the following way: the tension values are first converted into percentages relative to the maximum effect and these percentages are then plotted on a graph with the percentages on the Y-axis and the log (concentration) values on the X-axis. […] The concentration corresponding to the half-maximal effect (50%) can readily be calculated using the parameters of the straight line. […]

For test [1], the system named is platelet aggregation induced by the TXA2 agonist, U 46619. As to the kind of experiment: Platelet aggregation in man (platelet-rich plasma, induced by U 46619). In kind it is cell-based. The conditions noted are these: human PRP, U 46619 0.3 μM, read-out: IC50, inhibition of platelet aggregation induced by U 46619. The method, then: Platelet aggregation in man
Venous blood is obtained from human volunteers who have not taken any aspirin for at least 14 days prior to the experiment. The blood is taken onto sodium citrate (0.109 M) (1 vol. of citrate by 9 vol. of blood). The platelet-rich plasma (PRP) is obtained after centrifugation (20° C.) at 200×g for 10 minutes. The number of platelets is, on average, 250,000 PL/mm^3. The PRP is stored at room temperature until the time of the test and is used within 2 hours of the blood being taken. The antagonists are tested according to the procedure described in Example 19, using U 46619 at a concentration of 0.3 μM.

This note sets out measurements from patent US6013667A, “Benzenesulfonylamine compounds, process for preparing them and pharmaceutical compositions” (Adir Et Compagnie, priority 1997, dated 2000).

Molecules are shown by their SMILES.

Take `O=c1onc2cnc3ccccc3n12` [ODQ, reference compound]: in the test with Rabbit saphene vein (relaxations induced by the substances of the invention, ODQ), the “inhibition of relaxations by guanylate cyclase inhibitor (in words)” value is “capable of inhibiting relaxations”.

As to `O=C(O)CCc1cc(CCO[N+](=O)[O-])cc2c1CCC(NS(=O)(=O)c1ccc(Cl)cc1)C2` (stereo not shown) [Example 6, 3-{6-[(4-Chlorophenylsulfonyl)amino]-3-(2-nitroxyethyl)-5,6,7,8-tetrahydronaphth-1-yl}propionic acid], the IC50 in the test with Rabbit saphene vein came out at 7.7 µM. Moreover, at vascular TP-receptor, the pA2 worked out at 9.8.

Consider `O=C(O)CCc1c(CO[N+](=O)[O-])ccc2c1CCC(NS(=O)(=O)c1ccc(Cl)cc1)C2` (stereo not shown) [Example 4, 3-[6-(4-Chlorophenylsulfonyl)amino-2-nitroxymethyl-5,6,7,8-tetrahydronaphth-1-yl]propionic acid], for which, in test [1], the IC50 was found to be 0.14 µM.

On to `O=C(O)CCc1c(CCO[N+](=O)[O-])ccc2c1CCC(NS(=O)(=O)c1ccc(Cl)cc1)C2` (stereo not shown) [Example 2, 3-{6-[(4-Chlorophenylsulfonyl)amino]-2-(2-nitroxyethyl)-5,6,7,8-tetrahydronaphth-1-yl}propionic acid], for which the IC50 was determined as 0.14 µM in test [1] and 10 µM in the test on Rabbit saphene vein. At vascular TP-receptor, this compound had a pA2 of 9.5.

As usually defined, the pA2 is a measure of antagonist potency on a negative log scale. A lower pA2 goes with lower antagonist potency.
